Experimental data as given in patent US10961238B2, “Modulators of hedgehog (Hh) signaling pathway” (E-THERAPEUTICS PLC, priority 2016, dated 2021).

Tested on: C3H10T1/2 cells
Experiment: C3H assay: differentiation of C3H10T1/2 cells by mSHH, measurement of alkaline phosphatase
Format: cell-based, mouse
Conditions: C3H10T1/2 cells stimulated with mSHH for 72 hours; alkaline phosphatase activity; read-out: IC50 Ranges

Row | SMILES | IC50 [µM]
1 | CC(C)(C)OC(=O)N1CCC(S(=O)(=O)N2CC=C(c3n[nH]c4ncccc34)CC2)CC1 [Compound 229, tert-butyl 4-[[4-(1H-pyrazolo[3,4-b]pyridin-3-yl)-3,6-dihydro-2H-pyridin-1-yl]sulfonyl] piperidine-1-carboxylate] | 1 to 10

Same assay, conditions: Mus musculus, C3H 10T1/2; C3H10T1/2 cells stimulated with mSHH for 72 hours; alkaline phosphatase activity; read-out: IC50 Ranges

Row | IC50 [µM] | SMILES
2 | 0.1 to 1 | CC(C)NC(=O)N1CC(S(=O)(=O)N2CCC(c3c[nH]c4ncccc34)CC2)C1 [Compound 98, N-propan-2-yl-3-[4-(1H-pyrrolo[2,3-b]pyridin-3-yl)piperidin-1-yl]sulfonylaze-tidine-1-carboxamide]
3 | 1 to 10 | O=C(Nc1ccccc1)N1CCC(S(=O)(=O)N2CCC(c3ccncc3)CC2)CC1 [Compound 21, N-phenyl-4-(4-pyridin-4-ylpiperidin-1-yl)sulfonylpiper-idine-1-carboxamide]
4 | 0.1 to 1 | CC(C)(C)OC(=O)N1CCC(S(=O)(=O)N2CCC(c3ccccc3)CC2)CC1 [Compound 14, tert-butyl 4-(4-phenylpiperidin-1-yl)sulfonylpiper-idine-1-carboxylate]
5 | 1 to 10 | O=S(=O)(C1CCNC1)N1CCC(c2c[nH]c3ncccc23)CC1 (racemic) [Compound 249, 3-[1-(pyrrolidin-3-yl)sulfonylpiper-idin-4-yl]-1H-pyrrolo[2,3-b]pyridine]
6 | 1 to 10 | CN1CCC[C@H]1C(=O)N1CC(S(=O)(=O)N2CCC(c3ccccc3)CC2)C1 [Compound 315, [(2S)-1-methyl-pyrrolidin-2-yl]-[3-(4-phenylpiperidin-1-yl)sulfonylaze-tidin-1-yl]methanone]
7 | 0.01 to 0.1 | Cc1c(F)cccc1NC(=O)N1CC(S(=O)(=O)N2CCC(c3coc4cccnc34)CC2)C1 [Compound 360, N-(3-fluoro-2-methylphenyl)-3-(4-furo[3,2-b]pyridin-3-ylpiperidin-1-yl)sulfonylaze-tidine-1-carboxamide]
8 | 1 to 10 | COC(=O)c1cnc2[nH]cc(C3CCN(S(=O)(=O)C4CN(C(=O)OC(C)(C)C)C4)CC3)c2c1 [Compound 15, methyl 3-[1-[1-[(2-methylpropan-2-yl)oxycarbonyl]azetidin-3-yl]sulfonylpiper-idin-4-yl]-1H-pyrrolo[2,3-b]pyridine-5-carboxylate]
9 | 0.1 to 1 | CC(C)(C)C(=O)CN1CC(S(=O)(=O)N2CCC(c3ccc(C#N)cc3)CC2)C1 [Compound 378, 4-[1-[1-(3,3-dimethyl-2-oxobutyl)azetidin-3-yl]sulfonylpiperidin-4-yl]benzonitrile]
10 | 1 to 10 | Cn1cc(-c2cnc3[nH]cc(C4CCN(S(=O)(=O)C5CCN(C(=O)OC(C)(C)C)CC5)CC4)c3c2)cn1 [Compound 117, tert-butyl 4-[4-[5-(1-methylpyrazol-4-yl)-1H-pyrrolo [2,3-b]pyridin-3-yl]piperidin-1-yl]sulfonylpiper-idine-1-carboxylate]
11 | 0.01 to 0.1 | O=C(Nc1ccc(Cl)cc1Cl)N1CC(S(=O)(=O)N2CCC(c3coc4cccnc34)CC2)C1 [Compound 359, N-(2,4-dichlorophenyl)-3-(4-furo[3,2-b]pyridin-3-ylpiperidin-1-yl)sulfonylaze-tidine-1-carboxamide]
12 | 0.01 to 0.1 | CC(C)[C@@H](CO)NC(=O)N1CC(S(=O)(=O)N2CCC(c3coc4cccnc34)CC2)C1 [Compound 373, 3-(4-furo[3,2-b]pyridin-3-ylpiperidin-1-yl)sulfonyl-N-[(2S)-1-hydroxy-3-methylbutan-2-yl]azetidine-1-carboxamide]
13 | 0.1 to 1 | CN(C)S(=O)(=O)N1CC(S(=O)(=O)N2CCC(c3c[nH]c4ncccc34)CC2)C1 [Compound 90, N,N-dimethyl-3-[4-(1H-pyrrolo[2,3-b]pyridin-3-yl)piperidin-1-yl]sulfonylaze-tidine-1-sulfonamide]
14 | 0.1 to 1 | COc1ccc(C2CCN(S(=O)(=O)C3CN(C(=O)OC(C)(C)C)C3)CC2)cc1 [Compound 6, tert-butyl 3-[4-(4-methoxyphenyl)piperidin-1-yl]sulfonylaze-tidine-1-carboxylate]
15 | 1 to 10 | CC1CC(c2c[nH]c3ncccc23)CCN1S(=O)(=O)C1CN(C(=O)OC(C)(C)C)C1 (stereo not drawn) [Compound 46, tert-butyl 3-[2-methyl-4-(1H-pyrrolo [2,3-b]pyridin-3-yl)piperidin-1-yl]sulfonylaze-tidine-1-carboxylate]
16 | 0.01 to 0.1 | O=C(OCC1CC1)N1CC(S(=O)(=O)N2CCC(c3c[nH]c4ncccc34)CC2)C1 [Compound 204, cyclopropylmethyl 3-[4-(1H-pyrrolo[2,3-b]pyridin-3-yl)piperidin-1-yl]sulfonylaze-tidine-1-carboxylate]
17 | 0.1 to 1 | CC(C)(C)OC(=O)N1CC(S(=O)(=O)N2CCC(c3ccc(F)cc3)CC2)C1 [Compound 327, tert-butyl 3-[4-(4-fluorophenyl)piperidin-l-yl]sulfonylaze-tidine-1-carboxylate]

Second part, the compound before the results:

Row | SMILES | IC50 [µM]
18 | O=C(NC1(C(F)(F)F)CC1)[C@H]1C[C@@H](S(=O)(=O)N2CCC(c3coc4cccnc34)CC2)C1 [Compound 361, cis-3-(4-furo[3,2-b]pyridin-3-ylpiperidin-1-yl)sulfonyl-N-[1-(trifluoromethyl)cyclopropyl] cyclobutane-1-carboxamide] | 0.01 to 0.1
19 | Cc1ccc(C2CCN(S(=O)(=O)C3CCN(C(=O)OC(C)(C)C)CC3)CC2)c(C)c1 [Compound 9, tert-butyl 4-[4-(2,4-dimethylphenyl)piperidin-1-yl]sulfonylpiper-idine-1-carboxylate] | 1 to 10
20 | O=C(Oc1ccccc1O)N1CC(S(=O)(=O)N2CCC(c3c[nH]c4ncccc34)CC2)C1 [Compound 183, (2-hydroxyphenyl) 3-[4-(1H-pyrrolo[2,3-b]pyridin-3-yl)piperidin-1-yl]sulfonylaze-tidine-1-carboxylate] | 0.1 to 1
21 | C[C@H]1CC(c2c[nH]c3ncccc23)CCN1S(=O)(=O)C1CN(C(=O)OC(C)(C)C)C1 (mixture of isomers) [Compound 45, tert-butyl 3-[(2R)-2-methyl-4-(1H-pyrrolo[2,3-b]pyridin-3-yl)piperidin-1-yl]sulfonylaze-tidine-1-carboxylate] | 0.01 to 0.1
22 | CC(C)(C)C(=O)CN1CC(S(=O)(=O)N2CCC(c3ccc(F)cc3)CC2)C1 [Compound 375, 1-[3-[4-(4-fluorophenyl)piperidin-1-yl]sulfonylaze-tidin-1-yl]-3,3-dimethylbutan-2-one] | 0.1 to 1
23 | Cc1ccccc1NC(=O)N1CC(S(=O)(=O)N2CCC(c3coc4cccnc34)CC2)C1 [Compound 369, 3-(4-furo[3,2-b]pyridin-3-ylpiperidin-1-yl)sulfonyl-N-(2-methylphenyl) azetidine-1-carboxamide] | 0.1 to 1
24 | CC(C)N(CC(=O)N1CC(S(=O)(=O)N2CCC(c3ccc(F)cc3)CC2)C1)C(C)C [Compound 343, 2-[di(propan-2-yl)amino]-1-[3-[4-(4-fluorophenyl)piperidin-1-yl]sulfonylaze-tidin-l-yl]ethanone] | 0.1 to 1
25 | Cc1noc(C)c1NC(=O)N1CC(S(=O)(=O)N2CCC(c3cccnn3)CC2)C1 [Compound 25, N-(3,5-dimethyl-1,2-oxazol-4-yl)-3-(4-pyridazin-3-ylpiperidin-1-yl)sulfonylaze-tidine-1-carboxamide] | 1 to 10
26 | CC(C)(C)OC(=O)N1CCC(S(=O)(=O)N2CCC(c3ccnc4ccccc34)CC2)CC1 [Compound 11, tert-butyl 4-(4-quinolin-4-ylpiperidin-1-yl)sulfonylpiper-idine-1-carboxylate] | 0.1 to 1
27 | CC[C@@H](C)OC(=O)N1CC(S(=O)(=O)N2CCC(c3c[nH]c4ncccc34)CC2)C1 [Compound 200, [(2R)-butan-2-yl]3-[4-(1H-pyrrolo[2,3-b]pyridin-3-yl)piperidin-1-yl]sulfonylaze-tidine-1-carboxylate] | 0.01 to 0.1
28 | NC(=O)c1coc(N2CC(S(=O)(=O)N3CCC(c4ccncc4)CC3)C2)n1 [Compound 261, 2-[3-[[4-(4-pyridyl)-1-piperidyl]sulfonyl]azetidin-1-yl]oxazole-4-carboxamide] | 1 to 10
29 | O=S(=O)(C1CN(Cc2ccco2)C1)N1CCC(c2c[nH]c3ncccc23)CC1 [Compound 70, 3-[1-[1-(furan-2-ylmethyl)azetidin-3-yl]sulfonylpiper-idin-4-yl]-1H-pyrrolo[2,3-b]pyridine] | 0.1 to 1
30 | CC1(C)CCCC(C)(C)N1C(=O)N1CC(S(=O)(=O)N2CCC(c3c[nH]c4ncccc34)CC2)C1 [Compound 64, [3-[4-(1H-pyrrolo[2,3-b]pyridin-3-yl)piperidin-1-yl]sulfonylaze-tidin-1-yl]-(2,2,6,6-tetramethylpiperidin-1-yl)methanone] | 0.01 to 0.1
31 | CC(C)(C)OC(=O)N1CC(S(=O)(=O)N2CCC(c3nc4ccccc4s3)CC2)C1 [Compound 283, tert-butyl 3-[4-(1,3-benzothiazol-2-yl)piperidin-1-yl]sulfonylaze-tidine-1-carboxylate] | 0.1 to 1
32 | O=C(OCCN1CCOCC1)N1CC(S(=O)(=O)N2CCC(c3c[nH]c4ncccc34)CC2)C1 [Compound 54, 2-morpholin-4-ylethyl 3-[4-(1H-pyrrolo [2,3-b]pyridin-3-yl)piperidin-1-yl]sulfonylaze-tidine-1-carboxylate] | 0.01 to 0.1
33 | CC(C)C(CO)NC(=O)N1CC(S(=O)(=O)N2CCC(c3ccc(C#N)cc3)CC2)C1 (racemic) [Compound 348, 3-[4-(4-cyanophenyl)piperidin-1-yl]sulfonyl-N-[1-hydroxy-3-methylbutan-2-yl]azetidine-1-carboxamide] | 0.1 to 1
34 | Cc1noc(C)c1COC(=O)N1CC(S(=O)(=O)N2CCC(c3c[nH]c4ncccc34)CC2)C1 [Compound 62, (3,5-Dimethylisoxazol-4-yl)methyl 3-[[4-(1H-pyrrolo[2,3-b]pyridin-3-yl)-1-piperidyl]sulfonyl]azetidine-1-carboxylate] | 0.01 to 0.1
35 | COc1ccc(C2CCN(S(=O)(=O)C3CN(C(=O)OC(C)(C)C)C3)CC2)cn1 [Compound 48, tert-butyl 3-[4-(6-methoxypyridin-3-yl)piperidin-1-yl]sulfonylaze-tidine-1-carboxylate] | 0.1 to 1
36 | COC(=O)c1cnc(N2CC(S(=O)(=O)N3CCC(c4c[nH]c5ncccc45)CC3)C2)o1 [Compound 142, methyl 2-[3-[4-(1H-pyrrolo [2,3-b]pyridin-3-yl)piperidin-1-yl]sulfonylaze-tidin-1-yl]-1,3-oxazole-5-carboxylate] | 0.1 to 1
